Consider one substance from patent publication US20130266557A1, “METHODS FOR TREATMENT OF A SARCOMA USING AN EPIMETABOLIC SHIFTER (COENZYME Q10)” (priority 2009, published 2013).

The subject of one experiment is NCIES0808 cells. Put plainly: Western blot analysis. It counts as cell-based, human. As to the method:
Cells were grown and treated with CoQ10 at 50 uM and 100 uM, along with the proper controls. The total cell lysates (as prepared above) were processed and evaluated by Western blot analysis. Proteins from each treatment group were resolved on SDS-PAGE and transferred onto PVDF membranes. They were then hybridized with antibodies.
Either 5 or 10 μg of protein was assayed per sample by immunoblotting. Proteins were separated on 10-20% Tris-HCl gels or 4-12% Bis-Tris gels, transferred via electrophoresis to PVDF membranes and blocked using a 5% GE/Amersham ECF blocker and TBST solution prior to incubation with primary antibodies. The primary antibodies were incubated overnight at 4 degrees C. in a 5% BSA and TBST solution. Secondary antibodies were incubated for one hour at room temperature. All antibodies were purchased from commercial vendors. Antibodies were used at the manufacturers' recommended dilution, with the control βActin at a dilution of 1:5000. Blots were developed using GE/Amersham ECF reagent, and results were quantified using the Fuji FL-5100 laser scanner and Bio-Rad Quantity One densitometry analysis software. All blots were also probed for and normalized to their respective βActin expression.
NCIES0808 cells treated for 24 hours with 50 or 100 μM Q10 were subjected to Western blot analysis and were analyzed to identify protein-level changes relative to the control media samples.
Protein obtained from the treated cells was evaluated by Western blot analysis against an antibody for Angiotensin-converting enzyme (ACE) (FIG. 4A), an antibody for Caspase 3 (FIG. 4B), an antibody for GARS (FIG. 4C), an antibody for Matrix Metalloproteinase 6 (MMP-6) (FIG. 4D) and a series of antibodies for Neurolysin (NLN) (FIGS. 4E-F).

For the next experiment, the system named is melanoma cell. Put plainly: Bcl2 level in the presence of VEGF. Type of experiment: cell-based. The text has this: The term “Multidimensional Intracellular Molecule (MIM)”, is an isolated version or synthetically produced version of an endogenous molecule that is naturally produced by the body and/or is present in at least one cell of a human. A MIM is capable of entering a cell and the entry into the cell includes complete or partial entry into the cell as long as the biologically active portion of the molecule wholly enters the cell. MIMs are capable of inducing a signal transduction and/or gene expression mechanism within a cell. MIMs are multidimensional because the molecules have both a therapeutic and a carrier, e.g., drug delivery, effect. MIMs also are multidimensional because the molecules act one way in a disease state and a different way in a normal state.

In a further experiment the target is mitochondrial complex II (Homo sapiens, UniProt O14521+P21912+Q99643). Particulars: cancer cells; Mazzio and Soliman 2004; cited from earlier work.
Chain of mitochondrial complex II (P31040 43-664 partner): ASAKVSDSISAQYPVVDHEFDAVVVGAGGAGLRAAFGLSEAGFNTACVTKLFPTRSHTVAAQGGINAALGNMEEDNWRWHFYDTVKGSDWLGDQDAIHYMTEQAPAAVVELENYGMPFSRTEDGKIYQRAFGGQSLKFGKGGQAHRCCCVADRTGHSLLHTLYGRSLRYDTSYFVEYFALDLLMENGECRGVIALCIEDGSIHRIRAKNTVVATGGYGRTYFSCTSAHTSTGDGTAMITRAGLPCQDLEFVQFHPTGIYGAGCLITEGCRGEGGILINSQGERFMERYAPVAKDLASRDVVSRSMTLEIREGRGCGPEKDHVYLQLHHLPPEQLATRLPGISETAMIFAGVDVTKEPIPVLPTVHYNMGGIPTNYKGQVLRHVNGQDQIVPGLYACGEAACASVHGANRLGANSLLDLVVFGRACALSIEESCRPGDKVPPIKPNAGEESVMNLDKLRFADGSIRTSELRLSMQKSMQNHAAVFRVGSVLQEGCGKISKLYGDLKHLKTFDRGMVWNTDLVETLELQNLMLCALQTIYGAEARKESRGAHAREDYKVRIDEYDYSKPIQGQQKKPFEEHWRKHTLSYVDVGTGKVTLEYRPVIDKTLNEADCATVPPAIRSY
Chain of mitochondrial complex II (P21912 29-280): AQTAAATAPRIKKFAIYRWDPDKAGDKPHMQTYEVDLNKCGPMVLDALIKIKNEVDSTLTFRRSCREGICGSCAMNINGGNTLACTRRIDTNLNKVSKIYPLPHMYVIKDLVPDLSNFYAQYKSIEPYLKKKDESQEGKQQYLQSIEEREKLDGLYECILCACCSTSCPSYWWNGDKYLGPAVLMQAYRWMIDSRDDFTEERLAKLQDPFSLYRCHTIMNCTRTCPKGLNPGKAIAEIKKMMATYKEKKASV
Chain of mitochondrial complex II (Q99643 30-169): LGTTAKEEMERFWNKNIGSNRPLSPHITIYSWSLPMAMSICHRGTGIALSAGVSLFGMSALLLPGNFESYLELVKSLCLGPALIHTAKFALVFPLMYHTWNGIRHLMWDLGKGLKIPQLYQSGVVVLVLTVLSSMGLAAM
Chain of mitochondrial complex II (O14521 57-159): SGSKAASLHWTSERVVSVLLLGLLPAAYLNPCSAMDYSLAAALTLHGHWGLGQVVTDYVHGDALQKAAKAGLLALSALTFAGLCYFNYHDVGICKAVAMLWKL
The subject of a further experiment is skin cancer cells. Particulars: culture of skin cancer cells but not normal cells; cited from earlier work.
[1] abbreviates: 24 hours with 50 or 100 μM Q10, relative to control media.

Consider Coenzyme Q10 [CoQ10], for which, in the experiment with NCIES0808 cells (24 hours of treatment with 100 μM Q10), the “Caspase 3 protein level by Western blot” value is “marked downregulation”. Moreover, in the experiment on NCIES0808 cells (setting [1]), the “Angiotensin-converting enzyme (ACE) protein level by Western analysis” value is listed as “downregulated”, the “Caspase 3 protein level by Western analysis” value was “downregulated”, the “GARS protein level by Western analysis” value is given as “downregulated” and the “Matrix Metalloproteinase 6 protein level by Western analysis” value is reported as “downregulated”. Moreover, in the experiment on NCIES0808 cells (setting [1]), the “Neurolysin protein level by Western analysis” value is reported as “downregulated”. Moreover, in the experiment on melanoma cell, the “Level of Bcl2” value was “decreased level of Bcl2”. Also, the “Effect on Vmax of mitochondrial complex II activity” value at mitochondrial complex II is “increase the Vmax of mitochondrial complex II activity”. For the same substance, the Rate of apoptosis result with skin cancer cells is listed as “increase the rate of apoptosis”.
